Results on one compound are retold here after paper PMC3606118, “Salvianolic Acid A, a Novel Matrix Metalloproteinase-9 Inhibitor, Prevents Cardiac Remodeling in Spontaneously Hypertensive Rats” (PLoS ONE, 2013).

Like-named read-outs stand apart in the source and are kept apart here.

Assay [1] relates to neonatal cardiac fibroblast. Description: CCK-8 proliferation of neonatal cardiac fibroblast. The class given is cell-based, Wistar rats. The note with it: 10 µmol/L SalA with MMP-9 CD, 24 h. How it is done: (§1) Primary cardiac fibroblast was obtained from neonatal rats and National Institutes of Health (NIH) Guide for the Care and Use of Laboratory Animals was followed throughout. Wistar rats (2–4 day old) were sacrificed by cervical dislocation; ventricles were minced and digested with 0.1% trypsin at 37°C for 8 min. The liberated cells were collected by centrifugations; non-digested chunk materials were further digested in 0.1% trypsin for an additional 8 min. This digestion procedure was repeated 3–4 times. All the liberated cells were pelleted by centrifugation at 1,000 rpm for 10 min, re-suspended in DMEM containing 10% fetal bovine serum (FBS), and cultured in a 100-mm noncoated culture flask at 37°C with 5% CO2 for 2 h. Adherent cardiac fibroblasts were collected and maintained in DMEM supplemented with 10% FBS, 100 U/mL penicillin, 100 µg/mL streptomycin [12]. Cardiac fibroblasts were treated by vehicle (Con); 200 nmol/L MMP-9 CD (MMP-9); 200 nmol/L MMP-9 CD plus 1 µmol/L SalA [MMP-9/SalA(1)]; or 200 nmol/L MMP-9 CD plus 10 µmol/L SalA [MMP-9/SalA(10)] for the following research. All the detections were conducted after 24 h treatment.
Cell proliferation assay was performed using Cell Counting Kit (CCK-8 kit, Dojindo Laboratory, Japan) as described previously. Absorbance was detected at 450 nm (reference 650 nm) using a microplate reader (Tecan GENios, Austria).

The subject of assay [2] is neonatal cardiac fibroblast. Description: Soluble collagen secretion (picrosirius red assay). It counts as cell-based, Wistar rats. Particulars: 24 h, p<0.05. How it is done:
as §1, with “All the detections were conducted after 24 h treatment.” left out
Soluble collagen secreted by neonatal cardiac fibroblast was measured using picrosirius red assay with minor modification, [15]. […] 200 µL solution was transferred to 96 well plate for measuring absorbance at 595 nm using a UV spectrophotometer (Tecan GENios, Austria).

Assay [3] has as its system H9c2 cells overexpressing MMP-9 (pDEST-MMP9). Description: Transwell migration of H9c2 cells overexpressing MMP-9. The class given is cell-based, Rat. The note with it: pDEST-MMP9 untreated 157.4±10.2, pDEST 74.6±8.9. How it is done:
Transwell assay was employed to evaluate effects of SalA on neonatal cardiac fibroblast migration induced by MMP-9 CD. Twenty thousand cells in 200 µL culture medium containing various concentrations of SalA were loaded onto PET track-etched membrane in modified Boyden chambers (BD Falcon Cell Culture Insert, BD), and same medium containing MMP-9 CD (200 nmol/L) was added to the lower side of the migration chamber. After incubating for 24 h, migrated cells (in the lower side of migration chamber) were stained with 0.1% crystal violet and counted with a microscope at 200 X magnification. Five to six view fields were counted on each membrane. Migration is expressed as the mean value of total number of migrated cells per field. DNA cloning using Gateway technology was carried out according to manufacturer’s instructions. Full-length MMP-9 cDNA (MGC-12688) was first subcloned into entry vector pDONR^TM221, followed by recombination reaction between the attL-containing pDONR^TM221 vector and attR-containing destination pDEST vector (Invitrogen, Carlsbad, CA, USA). […] Stable H9c2 cell line was generated by selection with 2 mg/mL G418 (denoted as pDEST-MMP9) and maintained in 0.75 mg/mL G418, and expression of MMP-9 was evaluated using zymography assay. […]

Assay [4] deals with spontaneously hypertensive rats (SHR). The class given is in vivo. The note with it: for HW/BW (heart weight divided by body weight): 0 mg 4.37±0.08; for collagen volume fraction: 0 mg/kg 4.61±0.31. How it is done:
(§2) 2-month old male SHR rats were given rodent chow containing 8% NaCl 4 weeks before SaA treatment to the end of the experiment. Rats were divided into four groups (20 per group) and were injected intraperitoneally with saline or SalA everyday at the indicated dose for 4 weeks. The four groups were named as SalA (0 mg/kg), SalA (2.5 mg/kg), SalA (5 mg/kg), SalA (10 mg/kg) basing on the dose of SalA, respectively.
After ketamine-xylazine anesthesia (ketamine: xylazine, 60∶5 mg/kg, intramuscularly), heart, liver and kidney samples from experimental animals were fixed with 4% neutral-buffered paraformaldehyde for 24 h. Specimens were paraffin-embedded, sliced at 5 µm, and stained with haematoxylin and eosin. After staining, the sections were rinsed with distilled water, dehydrated, and mounted with Permount. Photomicrographs were taken using an Olympus BX51 microscope plus Olympus DP71 CCD camera (Olympus Corporation). Software Image-Pro Plus version 6.0 was used and approximately 150 cells per heart were measured to determine the average myocyte circumference. Paraffin-embedded slices were also stained with 0.1% picric sirius red (Sigma-Aldrich Inc, St Louis, USA) for fibrillar collagen. Collagen volume fraction (CVF) was expressed as a percentage of the total area of the field occupied by collagen staining.

Another assay has as its target T1, MMP-9 (Rattus norvegicus, UniProt P50282).
T1 construct: twenty µg protein from tissue; from tissue; host or cells: heart of spontaneously hypertensive rats (SHR)
Description: In-gel gelatin zymography of SHR heart, MMP-9. The class given is in vivo, SHR rats. Particulars: SalA i.p. everyday for 4 weeks. How it is done:
The enzymatic activities of H9c2 cells or tissue samples were detected by in-gel gelatin zymography. In brief, twenty µg protein from tissue or twenty microliter culture supernatant of H9c2 cells with different treatments was electrophoresed in 10% SDS-PAGE containing 1% gelatin as MMP substrate under non-reducing conditions. After electrophoresis, the gel was washed in 1% Triton X-100 for 1 h, rinsed in water, and incubated overnight in substrate buffer containing 50 mmol/L Tris-HCl, 5 mmol/L CaCl2, and 150 mmol/L NaCl (pH 7.5) at 37°C with gentle shaking. Then, the gel was stained in 0.1% Coomassie Blue R-250 and destained using 10% methanol, 5% acetic acid solution. The gel was scanned using a MiniBis system (DNR Bio-Imaging Systems Ltd) and the detected protein species corresponding to the expected molecular weight of MMP-9 was visualized.
as §2

[5] abbreviates: 2.5 mg/kg i.p. everyday 4 weeks.

T1 sequence (P50282 108-708): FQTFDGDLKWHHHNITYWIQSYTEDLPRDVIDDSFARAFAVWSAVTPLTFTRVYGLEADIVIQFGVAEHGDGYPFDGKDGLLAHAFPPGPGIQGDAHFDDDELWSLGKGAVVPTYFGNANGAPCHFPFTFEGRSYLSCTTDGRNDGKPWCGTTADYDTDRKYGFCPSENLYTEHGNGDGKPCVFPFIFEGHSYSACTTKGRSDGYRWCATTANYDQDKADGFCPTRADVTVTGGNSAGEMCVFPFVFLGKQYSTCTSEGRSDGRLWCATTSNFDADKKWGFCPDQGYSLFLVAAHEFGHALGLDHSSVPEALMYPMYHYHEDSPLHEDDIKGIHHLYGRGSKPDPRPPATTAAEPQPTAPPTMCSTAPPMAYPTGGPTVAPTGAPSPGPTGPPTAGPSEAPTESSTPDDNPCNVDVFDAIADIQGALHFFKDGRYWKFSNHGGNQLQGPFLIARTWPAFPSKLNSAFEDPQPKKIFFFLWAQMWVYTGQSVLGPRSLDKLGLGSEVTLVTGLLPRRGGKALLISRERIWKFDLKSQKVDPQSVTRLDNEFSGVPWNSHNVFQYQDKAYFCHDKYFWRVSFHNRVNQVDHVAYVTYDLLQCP

On to `O=C(/C=C/c1ccc(O)c(O)c1/C=C/c1ccc(O)c(O)c1)O[C@H](Cc1ccc(O)c(O)c1)C(=O)O` [SalA, salvianolic acid A], for which the “proliferation of neonatal cardiac fibroblast” value in assay [1] is given as “considerable promotion”. Besides, the “net collagen production in the presence of MMP-9 CD” value in assay [2] (1 µmol/L SalA) and in assay [2] (10 µmol/L SalA) was “significantly attenuated” in each case. Further, the results for the migrated cells in assay [3] (1 µmol/L SalA) and in assay [3] (10 µmol/L SalA) were 84.4±17.0 cells per field and 42.3±8.9 cells per field, respectively. The “HW/BW (heart weight divided by body weight)” value was determined as 4.36 ± 0.05 mg/g in assay [4] (setting [5]); 4.37 ± 0.08 mg/g in assay [4] (5 mg/kg i.p. everyday 4 weeks); 4.10 ± 0.08 mg/g in assay [4] (10 mg/kg i.p. everyday 4 weeks, p<0.05). For the same compound, the collagen volume fraction in assay [4] (setting [5]) stood at 4.48±0.29%; in assay [4] (5 mg/kg i.p. everyday 4 weeks), 3.04±0.16%; in assay [4] (10 mg/kg i.p. everyday 4 weeks), 2.58±0.17%. Further, the “cardiomyocyte size (myocyte circumference)” value in assay [4] (SalA treatment versus SHR, p<0.001) was “significantly down-regulated”. The “MMP-9 activity in heart of SHRs” value at MMP-9 was “inhibited by SalA significantly”.
